Compound	melting point
COc1ccc(COc2cccc(C(C)O)c2OCc2ccc(OC)cc2)cc1 (configuration not stated)	88 to 89 °C
CCCn1c(COCC)nc2c(N)nc3ccc(OCCCCCCNS(C)(=O)=O)cc3c21	164 to 167 °C
CC1(C)COC(c2ccccc2S(N)(=O)=O)=N1	142 to 146 °C
CC(C)(C)c1ccc(C(NC(=O)c2c(F)cccc2Cl)N2CCOCC2)cc1 (configuration not stated)	180 to 181 °C
O=C1C(c2cccc(O)c2)CCCCN1Cc1ccccc1 (configuration not stated)	160 to 166 °C
COc1cc(C(OC(C)=O)C(COC(C)=O)[N+](=O)[O-])ccc1OC(C)=O (configuration not stated)	97 to 100 °C
C=C(Nc1nc(-c2ccccc2)c(-c2nc3ccccc3c(=O)n2-c2ccccc2C)s1)c1ccco1	262 to 263 °C
Cc1noc(NS(=O)(=O)c2cccc(F)c2)c1Br	125 to 128 °C
CC1=C(C(=O)CCl)C2(C)CCC3C(CC=C4CC(O)CCC43C)C2C1 (configuration not stated)	170 to 172 °C
Cc1cc(Oc2ncc(Cl)cc2Cl)n[nH]1	109 to 111 °C
Cc1ccc(NC(=O)N(C)Cc2cccc3c2C(=O)N(C2CCC(=O)NC2=O)C3=O)cc1 (configuration not stated)	> 260 °C
O=c1oc2ccccc2n1CCN1CCc2c([nH]c3ccccc23)C1	135 to 137 °C
O=C1C2=C(CCCC2)C(=O)N1c1cc(O)ccc1F	165 °C
CN(C(=O)C(F)(F)F)C1Cc2ccc(C(=O)Cn3cnc4cc(-c5ccc(Cl)cc5)sc4c3=O)cc2C1 (configuration not stated)	245 to 248 °C
CSc1ccc(-c2coc3ccc(-c4nnc(C)o4)cc23)cc1	173 to 174 °C
COc1c(C)cc2[nH]c(S(=O)Cc3nccc(C)c3C)nc2c1C (configuration not stated)	161 °C
CCCCCn1cc(C(=O)O)c(=O)c(I)c1C	154 °C
O=C(O)c1oc(-c2ccccc2)cc(=O)c1Br	247 °C
Cn1nnnc1C=C(c1ccc(F)cc1)c1ccc(F)cc1	169 to 171 °C
CCOC(=O)CCc1c(C)c(NC(=O)CC(C)(C)C)c(C)c2c1OCC2c1ccc(C(C)C)cc1 (configuration not stated)	150 to 151 °C
S=C(Nc1ccc(Nc2ccccc2)cc1)Nc1ccc(Nc2ccccc2)cc1	164 to 171 °C
COc1ccc(C2=NN(CCCCN3C(=O)c4ccccc4C3=O)C(=O)[C@H]3CC=CC[C@@H]23)cc1OC (relative stereo)	139 to 140 °C
C=C1c2c(C)c(N3CCN(c4ccc(OC)cc4)CC3)c(C)c(C)c2OC1(C)C	134 to 136 °C
CCCCCCCCCCNS(=O)(=O)c1ccc(OC)cc1	53 to 54.5 °C
CON=C1CCC1N1CCC(Cc2ccc(Cl)cc2)CC1 (configuration not stated)	127 to 128 °C
O=C(O)c1cnc2cnc3ccccc3n2c1=O	216 to 218 °C

Compound	melting point
CS(=O)c1ccc(C#N)cc1 (configuration not stated)	87 to 90 °C
C=CC(=O)OCCOC(=O)Cc1cc(O)n2ncnc2n1	108 to 109 °C
CCCc1c(OCc2cccc(C(=O)NC(C)CCCc3cccnc3)c2)ccc(C(C)=O)c1O (configuration not stated)	115 to 118 °C
CCC(O)CN1CCC(CCN2CCN(c3cccc(Cl)c3Cl)CC2)CC1 (configuration not stated)	94 °C
CC(=O)C1(C)COC(C)(C)OC1	48 to 50 °C
COc1ccc2c(C3=C(c4cn(C)c5cc(OC)ccc45)C(=O)NC3=O)cn(C)c2c1	257 to 258 °C
C=Cc1cc([C@@H](C)NC(=O)C=Cc2ccc(C(C)(C)C)cc2)cc(F)c1NS(C)(=O)=O	127 to 129 °C
NCc1ccn(C2=CC3=C(CC2)CCc2[nH]c(=O)c(=O)n(CC(=O)O)c23)c1	> 250 °C
CC(C)NCC(O)COc1ccc(CCSCC2CCC2)cc1 (configuration not stated)	52 °C
CC(C)(NC(=O)c1ccc([N+](=O)[O-])cc1)C(=O)CCl	181 to 182 °C
CCOC(=O)O[C@H](CCCc1ccc(OCc2nc(-c3ccccc3)sc2C)cc1)C(N)=O	130 to 131 °C
Cc1ccc(NCC2CCN(C3CCCCC3)CC2)c(C(=O)Nc2ccc(Cl)cn2)c1	179 to 182 °C
O=C(c1cccnc1)N1CC2CSc3ccccc3C2=N1 (configuration not stated)	173 to 175 °C
COc1cc2c(c(Cl)c1Cl)C(=O)c1ccccc1-2	268 to 270 °C
N#Cc1ccc2c(c1)CS(=O)(=O)NN=C2c1ccc(F)cc1	218 to 219 °C
O=C1CCC(c2ccc(NC3=NCCS3)cc2)=NN1	217 to 218 °C
CCOC(=O)c1c(OCc2ccccc2)cc(C(F)(F)F)nc1C(F)(F)F	56 to 58.5 °C
CC(C)(Oc1ccc(CCC(=O)c2ccc(-c3ccc(C(F)(F)F)cc3)s2)cc1)C(=O)O	154 to 155 °C
CCc1cc(NC(C)=O)cc(CC)n1	74 to 78 °C
CCC(=O)c1cc(C2(c3cccc(NC(=O)COC)c3)N=C(N)N(C)C2=O)cn1CC (configuration not stated)	95 to 115 °C
CCN(CC)CCNC(=O)c1cccc2c(=O)c3ccc(I)cc3[nH]c12	208 to 210 °C
O=C(NCCO)c1cccc(-c2ccc3c(c2)N(Cc2cc(Cl)cc(Cl)c2)CC3)c1	121 to 128 °C
Oc1ccccc1-c1noc2ccsc12	121 °C
CC(C)CNC(=O)/C=C/C=C/CCCCCCOCc1cccc(C(F)(F)F)c1	48 to 50 °C
CS(=O)c1ccc(-c2coc3ccc(-c4nnc(N)o4)cc23)cc1Cl (configuration not stated)	266 to 267 °C
NS(=O)(=O)c1ccccc1C(=O)c1cccs1	122 to 125 °C

Source: a melting point compilation (Tetko et al.; mined from patent text by program, amines drawn as free bases though some values may be those of a salt)
